Test results as given in patent US9227956B2 (Pfizer Inc., priority 2013, dated 2016).

Columns and labels:
human PCSK9 [1] = assay: PCSK9 AlphaLISA assay, PCSK9 lowering in WT7 cells; conditions: WT7 cells (Huh7 stably over-expressing human PCSK9); secreted PCSK9 by AlphaLISA; overnight incubation (16-24 h); top concentration 20 μM; read-out: Cell Based PCSK9 IC50
Text: An in-vitro AlphaLISA assay (Perkin Elmer) was developed in order to quantitate the level of PCSK9 secreted into the cell culture media following compound treatment. To detect and measure PCSK9 protein an in-house generated anti-PCSK9 antibody was coupled to AlphaLISA acceptor beads by an external vendor (PerkinElmer) and a second internally developed anti-PCSK9 antibody with an epiptope distinct from that of the acceptor beads was biotinylated in house. Streptavidin coated-donor beads (Perkin Elmer) are also included in the assay mixture which then binds the biotinylated anti-PCSK9 antibody and in the presence of PCSK9 this donor complex and acceptor beads are brought into close proximity. […] The ability of compound to modulate PCSK9 protein levels in conditioned media by AlphaLISA was assessed in the human hepatocellular carcinoma cell line Huh7, stably over-expressing human PCSK9. […] Following plasmid transfection the stable WT7 clone was identified and maintained under Zeocin selection. Compound screening was performed in 384-well plates where WT7 cells were plated at a density of 7500 cells per well in 20 μL of tissue culture media containing compound in an eleven point, 0.5 log dilution format at a high treatment concentration of 20 μM in a final volume of 0.5% DMSO. In additional to these test compound conditions each screening plate also included wells that contained 20 μM puromycin as a positive assay control defined as high percent effect, HPE, as well as wells containing media in 0.5% DMSO as a negative treatment control defined as zero percent effect, ZPE. After overnight compound incubation (16-24 h) the tissue culture media was collected and an aliquot from each sample was transferred to individual wells of a 384-well white Optiplate (Perkin Elmer). The coupled antibodies and donor beads were added to the assay plates in a buffer composed of 30 mM Tris pH 7.4, 0.02% Tween-20 and 0.02% Casein. Anti-PCSK9 acceptor beads (final concentration of 10 μg/mL) and anti-PCSK9 biotinylated antibody (final concentration of 3 nM) were added and incubated for 30 minutes at room temperature followed by the addition of the streptavidin donor beads (final concentration 40 μg/mL) for an additional 60 minutes. Additionally a standard curve was generated where AlphaLISA reagents were incubated in wells spiked with recombinant human PCSK9 diluted in tissue culture media from 5000 ng/mL to 0.6 ng/mL. […] The test compound data were converted into percent effect, using the ZPE and HPE controls as 0% and 100% activity, respectively. The equation used for converting each well reading into percent effect was:
[formula] IC50 was then calculated and reported as the midpoint in the percent effect curve in molar units and the values are reported under the Cell Based PCSK9 IC50 (μM) column header within Table 1 Biological Data. Additionally, to monitor the selectivity of compound response for PCSK9 the level of a second secreted protein, Transferrin, was measured from the same conditioned media treated with test compound by AlphaLISA. […] To detect and quantify effects on Transferrin 0.01 mL of the culture media was transferred to a 384-well white Optiplate and 0.01 mL of media was added to bring the volume to 0.02 ml. Anti-Transferrin acceptor beads were added to a final concentration of 10 μg/mL, biotinylated anti-Transferrin at 3 nM and streptavidin donor beads at 40 μg/mL. Percent effect and IC50 for Transferrin was computed in a similar manner as that described for PCSK9.

human PCSK9 [2] = assay: Cell Free PCSK9 Assay (PCSK9-luciferase RNA translated in HeLa cell lysate); assay type: biochemical; conditions: 30° C. for 45 minutes, luciferase readout, top concentration 100 μM
Protocol: In order to eliminate the permeability barrier inherent to the WT7 and SCHH cell-based assays a cell-free system was also established to access compound activity. […] The construct was then in-vitro transcribed using the MEGAscript T7 Kit (Life Technologies) and RNA subsequently purified incorporating the MEGAclear Kit (Life Technologies) according to manufacturer's protocols. […] Growth was in a 50 L wavebag at a rocker speed of 25 rpm and angle 6.1 with 5% CO2 and 0.2 LPM flow rate with cells harvested at a density of 2-2.5e6/ml. Lysates additionally contained 1 tablet of Roche cOmplete-EDTA protease inhibitors per 50 ml with tris(2-carboxyethyl)phosphine (Biovectra) substituted for dithiothreitol, and were clarified by an additional final centrifugation at 10,000 rpm in a Sorvall SS34 rotor at 4° C. for 10 minutes. Compound screening was performed in 384-well plates in an eleven point, 0.5 log dilution format at a top test compound concentration of 100 μM in a final volume of 0.5% DMSO. […] Upon assay completion 1 μL from each reaction solution was removed and transferred to a second 384-well Optiplate (Perkin Elmer) containing 24 μL of SteadyGlo (Promega) and signal intensity was measured on the Envision (Perkin Elmer) using the enhanced luminescence protocol. […] The test compound data were converted into percent effect, using the ZPE and HPE controls as 0% and 100% activity, respectively, applying Equation 1 above. IC50 was then calculated and reported as the midpoint in the percent effect curve in molar units and the values are reported under the Cell Free PCSK9 IC50 (μM) column header within Table 1 Biological Data.

PCSK9 [3] = assay: PCSK9 lowering in sandwich culture human hepatocytes (SCHH); assay type: cell-based; conditions: maximum response versus vehicle; at 8 h at 100 μM
PCSK9 [4] = assay: as above; assay type: cell-based; conditions: maximum response versus vehicle
Protocol: Test compound in-vitro pharmacokinetic and pharmacodynamic relationships were measured in sandwich culture primary cryopreserved human hepatocytes. Within these studies SCHH cells (BD Biosciences IVT) were thawed at 37° C. then placed on ice, after which the cells were added to pre-warmed (37° C.) In VitroGRO-HT media and centrifuged at 50×g for 3 min. The cell pellet was re-suspended to 0.8×10^6 cells/mL in InVitroGRO-CP plating medium and cell viability determined by trypan blue exclusion. On day 1, hepatocyte suspensions were plated in BioCoat 96-well plates at a density of 80000 cells/well in a volume of 0.1 mL/well. After 18 to 24 hours of incubation at 37° C. in 5% CO2, cells were overlaid with ice-cold 0.25 mg/mL BD Matrigel Matrix Phenol Red-Free in incubation medium at 0.1 mL/well. Cultures were maintained at 37° C. in 5% CO2 in InVitroGRO-HI (FBS-free media), which was replaced every 24 hours and time course treatments were initiated on day 5. Prior to compound treatment cell plates were washed 3 times with 0.1 mL/well InVitroGRO-HI and 0.09 mL of media was added back in preparation for the compound additions. 1 uL of either DMSO or compound DMSO stocks at 30 mM, 10 mM, 3 mM and 1 mM were stamped into 96 well V bottom polypropylene plates. 0.099 mL of media was added to the compound plate and mixed thoroughly before the addition of 0.010 mL from the interim compound plate to the cell plate. […] At the indicated time, 0.08 mL of media was removed from the cell plates and frozen for subsequent analysis of secreted PCSK9 by AlphaLISA and for determination of drug levels in the media by liquid chromatography-tandem mass spectrometry (LC-MS/MS). The remaining media was then aspirated and the cell layers were washed 3× with ice cold Hanks Balanced Salt Solution (HBSS) under shaking conditions to remove the matrigel overlay and plates were then stored at −20° C. for subsequent determination of drug levels in the cells by LC-MS/MS. AlphaLISA determination of PCSK9 protein levels within the conditioned media was performed ultilizing the identical reagents and detection protocols described above for the WT7 cells.

SMILES	IC50 (human PCSK9 [1]) [µM]	IC50 (human PCSK9 [2]) [µM]	Sandwich Culture Hepatocyte (SCHH) PCSK9 Lowering (PCSK9 [3])	Sandwich Culture Hepatocyte (SCHH) PCSK9 Lowering (PCSK9 [4]; at 6 h at 30 uM) [% at 6 h at 30 uM]	Sandwich Culture Hepatocyte (SCHH) PCSK9 Lowering (PCSK9 [4]; at 8 h at 30 μM) [% at 8 h at 30 μM]
CCC(=O)OC(C(C)C)n1nnc(-c2c(-c3ccc(C(=O)N(c4ncccc4C)[C@@H]4CCCNC4)cc3)cnn2C)n1 (single isomer, unassigned) [Example 49]	> 20	15.4	–	0	–
CCOC(=O)OC(n1nnc(-c2c(-c3ccc(C(=O)N(c4ncccc4C)[C@@H]4CCCNC4)cc3)cnn2C)n1)C(C)(C)C (single isomer, unassigned) [Example 37]	> 20	22.9	–	25	–
Cc1cccnc1N(C(=O)c1ccc(-c2cnn(C)c2-c2nnn(C(OC(=O)OC(C)C)C(C)C)n2)cc1)[C@@H]1CCCNC1 (single isomer, unassigned) [Example 43]	> 20	31.9	–	21	–
Cc1cccnc1N(C(=O)c1ccc(-c2cnn(C)c2-c2nnn(C(OC(=O)OC(C)C)C(C)C)n2)cc1)[C@@H]1CCCNC1 (single isomer, unassigned) [Example 42]	> 20	7.38	–	19	–
CCC(OC(=O)C(C)C)n1nnc(-c2c(-c3ccc(C(=O)N(c4ncccc4C)[C@@H]4CCCNC4)cc3)cnn2C)n1 (single isomer, unassigned) [Example 53]	> 20	31.8	–	0	–
Cn1ncc(-c2ccc(C(=O)N(c3nccc4ccn(C)c34)[C@@H]3CCCNC3)cc2)c1C(=O)O [Example 12, 1-methyl-4-(4-{(1-methyl-1H-pyrrolo[2,3-c]pyridin-7-yl)[(3R)-piperidin-3-yl]carbamoyl}phenyl)-1H-pyrazole-5-carboxylic acid]	> 20	1.7	–	–	36
Cc1cccnc1N(C(=O)c1ccc(-c2cnn(C)c2-c2nnn(C(C)OC(=O)C(C)C)n2)cc1)[C@@H]1CCCNC1 (single isomer, unassigned) [Example 50]	> 20	8.03	–	37	–
Cn1ncc(-c2ccc(C(=O)N(c3ncccc3Cl)[C@@H]3CCCNC3)cc2)c1C(=O)O [Example 7, 4-(4-{(3-chloropyridin-2-yl)[(3R)-piperidin-3-yl]carbamoyl}phenyl)-1-methyl-1H-pyrazole-5-carboxylic acid]	> 20	18	26% at 8 h at 100 μM	–	–
Cc1cccnc1N(C(=O)c1ccc(-c2cnn(C)c2-c2nnn(C(OC(=O)C(C)C)C(C)C)n2)cc1)[C@@H]1CCCNC1 (single isomer, unassigned) [Example 54]	> 20	12.8	–	29	–

The remaining lines, values ahead:

IC50 (human PCSK9 [1]) [µM]	IC50 (human PCSK9 [2]) [µM]	Sandwich Culture Hepatocyte (SCHH) PCSK9 Lowering (PCSK9 [3])	Sandwich Culture Hepatocyte (SCHH) PCSK9 Lowering (PCSK9 [4]; at 6 h at 30 uM) [% at 6 h at 30 uM]	Sandwich Culture Hepatocyte (SCHH) PCSK9 Lowering (PCSK9 [4]; at 8 h at 30 μM) [% at 8 h at 30 μM]	SMILES
> 20	3.05	63% at 8 h at 100 uM	–	–	Cc1cccnc1N(C(=O)c1ccc(-c2cnn(C)c2-c2nn[nH]n2)cc1)[C@@H]1CCCNC1 [Example 17, N-(3-methylpyridin-2-yl)-4-[1-methyl-5-(2H-tetrazol-5-yl)-1H-pyrazol-4-yl]-N-[(3R)-piperidin-3-yl]benzamide]
> 20	23.7	–	32	–	CCOC(=O)OC(CC)n1nnc(-c2c(-c3ccc(C(=O)N(c4ncccc4C)[C@@H]4CCCNC4)cc3)cnn2C)n1 (single isomer, unassigned) [Example 33]
> 20	7.26	–	0	–	CCOC(=O)OC(CC)n1nnc(-c2c(-c3ccc(C(=O)N(c4ncccc4C)[C@@H]4CCCNC4)cc3)cnn2C)n1 (single isomer, unassigned) [Example 32]
2.3	0.8	–	–	83	COC(=O)c1c(-c2ccc(C(=O)N(c3ncccc3C)[C@@H]3CCCNC3)cc2)cnn1C [Example 13, Methyl 1-methyl-4-(4-{(3-methylpyridin-2-yl)[(3R)-piperidin-3-yl]carbamoyl}phenyl)-1H-pyrazole-5-carboxylate]
> 20	5.61	15% at 8 h at 100 uM	–	–	Cc1cccnc1N(C(=O)c1ccc(-c2cnn(C)c2-c2noc(=O)[nH]2)cc1)[C@@H]1CCCNC1 [Example 18, 4-[1-methyl-5-(5-oxo-4,5-dihydro-1,2,4-oxadiazol-3-yl)-1H-pyrazol-4-yl]-N-(3-methylpyridin-2-yl)-N-[(3R)-piperidin-3-yl]benzamide]
> 20	6.2	–	28	–	CCOC(=O)OC(C(C)C)n1nnc(-c2c(-c3ccc(C(=O)N(c4ncccc4C)[C@@H]4CCCNC4)cc3)cnn2C)n1 (single isomer, unassigned) [Example 35]
